Reference: patent US6831061B2, “Apicidin-derivatives, their synthetic methods and anti-tumor compositions containing them” (priority 2000, dated 2004)
≈ marks a conversion by molar mass, not a printed value. Like-named read-outs stand apart in the source and are kept apart here.

What was measured:
[1] = system: CCD-18Co (human normal colon cell line); assay: Cell growth inhibition assay (SRB assay), CCD-18Co; type: cell-based; settings: for IC50: Homo sapiens, CCD-18Co, 48 h; for IC50 / Growth inhibition IC50: CCD-18Co normal cells, SRB assay; for Growth inhibition IC50: 48 hours
Experimental: (§1) HeLa (human cervical cancer cell line), v-ras-transformed NIH3T3 (mouse fibroblast cell line), Colon 3.1-M26 (mouse colon cancer cell line), MG63 (human osteosarcoma cell line) and MCF-7 (human breast cancer cell line) cells were cultured in DMEM (Dulbecco's modified Eagle's medium, produced by Life Technologies, Inc.). A2058 (human melanoma cell line), AGS (human gastric adenocarcinoma cell line), HBL-100 (human breast cancer cell line), CCD-18Co (human normal colon cell line) and LL86 (human normal lung cell line) cells were cultured in RPMI 1640 (Life Technologies, Inc.) in the presence of 10% FBS and 1% penicillin/streptomycin.
(§2) A cell growth inhibition assay according to sulforhodamine B (SRB) protein dye assay was carried out to examine the effects of apicidin derivative prepared in the Examples on mouse and human cancer cells. The cells were placed in wells and during cultivation were treated with 0.01, 0.1, 0.5, 1, and 2 μg/mL of apicidin, SD9801, SD9802, SD9803, the compound of Example 1, the compound of Example 2 and the compound of Example 3.
(§3) After 48 hours of cultivation, the media were removed from the well plates. The cells were fixed with 1 mL of 10% trichloroacetic acid at 4° C. washed 5 times with distilled water and completely dried in the air. The wells were treated with 0.4% SRB solution and died for 30 minutes at an ambient temperature. Subsequently, the wells were washed 5 times with distilled water and dried for 18 hours. To the respective wells, Tris-HCl (1 mL, 10 mM) was added to dissolve the proteins bonded to SRB. The contents of each well were removed and measured for their absorption at 490 nm.

[2] = system: HBL-100 (human breast cancer cell line); assay: Cell growth inhibition assay (SRB assay), HBL-100; type: cell-based; settings: HBL-100, 48 h
Experimental: as §1, §2, §3

[3] = system: v-ras-transformed NIH3T3 (mouse fibroblast cell line); assay: Cell growth inhibition assay (SRB assay), v-ras-transformed NIH3T3; type: cell-based; settings: NIH3T3, 48 h
Experimental: as §1, §2, §3

[4] = system: HeLa (human cervical cancer cell line); assay: Cell growth inhibition assay (SRB assay), HeLa; type: cell-based; settings: 48 h, read-out: Growth inhibition IC50, HeLa cancer cells, SRB assay, 48 hours
Experimental: as §1, §2
(§4) After 48 hours of cultivation, the media were removed from the well plates. The cells were fixed with 1 mL of 10% trichloroacetic acid at 4° C. washed 5 times with distilled water and completely dried in the air. […] The contents of each well were removed and measured for their absorption at 490 nm.

[5] = system: A2058 (human melanoma cell line); assay: Cell growth inhibition assay (SRB assay), A2058; type: cell-based; settings: for IC50: Homo sapiens, A2058, 48 h, read-out: Growth inhibition IC50, A2058 cancer cells, SRB assay, 48 hours
Experimental: as §1, §2, §3

[6] = system: LL86 (human normal lung cell line); assay: Cell growth inhibition assay (SRB assay), LL86; type: cell-based
Experimental: as §1, §2, §3

[7] = system: Colon 3.1-M26 (mouse colon cancer cell line); assay: Cell growth inhibition assay (SRB assay), Colon 3.1-M26; type: cell-based; settings: for IC50: Mus musculus, 48 h
Experimental: as §1, §2, §3

[8] = system: MCF-7 (human breast cancer cell line); assay: Cell growth inhibition assay (SRB assay), MCF-7; type: cell-based; settings: MCF7, 48 h, read-out: Growth inhibition IC50, MCF-7 cancer cells, SRB assay, 48 hours
Experimental: as §1, §2, §4

[9] = system: AGS (human gastric adenocarcinoma cell line); assay: Cell growth inhibition assay (SRB assay), AGS; type: cell-based; settings: 48 h
Experimental: as §1, §2, §3

[10] = system: MG63 (human osteosarcoma cell line); assay: Cell growth inhibition assay (SRB assay), MG63; type: cell-based; settings: MG-63, 48 h, read-out: Growth inhibition IC50, MG63 cancer cells, SRB assay, 48 hours
Experimental: as §1, §2, §4

[11] = system: Histone deacetylase purified from HeLa cells; assay: In vitro histone deacetylation assay; type: biochemical, human; settings: [3H]acetyl histone substrate, 37° C., 20 minutes; read-out: Histone deacetylase inhibition IC50
Experimental: Histone deacetylase was purified from HeLa cells. The activity of histone deacetylase was measured according to a method known in the art—See, e.g., Inoue, A. et al., Biochem. Biophys. […] Here, histone with [^3H]acetyl group labeled with radio-active materials was used as a substrate for measurement of activity of histone deacetylase. After incubation at 37° C. for 20 minutes, [^3H]acetic acid released into medium was extracted with ethylacetate and quantified using a liquid radiation detection method.

[12] = read-out: Growth inhibition IC50, HBL-100 cancer cells, SRB assay, 48 hours
[13] = read-out: Growth inhibition IC50, v-ras-transformed NIH3T3 cancer cells, SRB assay, 48 hours
[14] = 48 h, read-out: Growth inhibition IC50, LL86 normal cells, SRB assay, 48 hours
[15] = read-out: Growth inhibition IC50, Colon 3.1-M26 cancer cells, SRB assay, 48 hours
[16] = read-out: Growth inhibition IC50, AGS cancer cells, SRB assay, 48 hours
[17] = HBL-100 cancer cells, SRB assay, 48 hours, read-out: Growth inhibition IC50
[18] = v-ras-transformed NIH3T3 cancer cells, SRB assay, 48 hours, read-out: Growth inhibition IC50
[19] = LL86 normal cells, SRB assay, 48 hours, read-out: Growth inhibition IC50
[20] = Colon 3.1-M26 cancer cells, SRB assay, 48 hours
[21] = Colon 3.1-M26 cancer cells, SRB assay, 48 hours, read-out: Growth inhibition IC50
[22] = AGS cancer cells, SRB assay, 48 hours, read-out: Growth inhibition IC50

Row | Structure (SMILES) | IC50 [1] [µg/mL] | IC50 [2, 12] [µg/mL] | IC50 [3, 13] [µg/mL] | IC50 [4] [µg/mL] | IC50 [5] [µg/mL] | IC50 [6, 14] [µg/mL] | IC50 [7, 15] [µg/mL] | IC50 [8] [µg/mL] | IC50 [9, 16] [µg/mL] | IC50 [10] [µg/mL] | IC50 [11] [nM] | Growth inhibition IC50 [1] [µg/mL] | IC50 [2, 17] [µg/mL] | IC50 [3, 18] [µg/mL] | IC50 [6, 19] [µg/mL] | Growth inhibition IC50 [7, 20] [µg/mL] | IC50 [7, 21] [µg/mL] | IC50 [9, 22] [µg/mL] | times higher safety against normal cell growth than the parent compound, apicidin ([1]; normal cell growth) | Growth inhibition IC50 ([5]; A2058 cancer cells, SRB assay, 48 hours) [µg/mL]
1 | CCC(=O)CCCCC[C@@H]1NC(=O)[C@H]2CCCCN2C(=O)[C@H]([C@@H](C)CC)NC(=O)[C@H](Cc2cn(OC)c3ccccc23)NC1=O [Apicidin, apicidin] | 2.36 (≈ 3.78 µM) | 0.57 (≈ 0.914 µM) | 0.18 (≈ 0.289 µM) | 0.51 (≈ 0.818 µM) | 0.55 (≈ 0.882 µM) | 4.25 (≈ 6.81 µM) | 0.17 (≈ 0.273 µM) | 1.17 (≈ 1.88 µM) | 0.13 (≈ 0.208 µM) | 1.88 (≈ 3.01 µM) | – | – | – | – | – | – | – | – | – | –
2 | CCC(CCCCCC1NC(=O)C2CCCCN2C(=O)C(C(C)CC)NC(=O)C(Cc2cn(OC)c3ccccc23)NC1=O)=NNC(=O)NN (stereo not shown) [Example 4, Carbohydrazone Derivative of Apicidin] | – | – | – | – | – | – | – | – | – | – | 39 | – | – | – | – | – | – | – | – | –
3 | CCC(CCCCCC1NC(=O)C2CCCCN2C(=O)C(C(C)CC)NC(=O)C(Cc2cn(OC)c3ccccc23)NC1=O)=NNC(C)(C)C (stereo not shown) [Example 3, tert-butylhydrazone Derivative of Apicidin] | 4.27 to 18.2 (≈ 6.15 to 26.3 µM) | – | – | – | – | 4.27 to 18.2 (≈ 6.15 to 26.3 µM) | – | – | – | – | 25 | 4.27 | < 0.2 | < 0.2 | 14.8 (≈ 21.3 µM) | 0.21 | 0.2 to 2.07 (≈ 0.288 to 2.98 µM) | < 0.2 | – | –
4 | CCC(CCCCCC1NC(=O)C2CCCCN2C(=O)C(C(C)CC)NC(=O)C(Cc2cn(OC)c3ccccc23)NC1=O)=NN (stereo not shown) [Example 2, Hydrazone Derivative of Apicidin] | 4.27 to 18.2 (≈ 6.69 to 28.6 µM) | – | – | – | – | 4.27 to 18.2 (≈ 6.69 to 28.6 µM) | – | – | – | – | 3 | 8.51 | < 0.2 | < 0.2 | 16.3 (≈ 25.6 µM) | 0.20 | 0.2 to 2.07 (≈ 0.314 to 3.25 µM) | < 0.2 | – | –
5 | CCC(CCCCCC1NC(=O)C2CCCCN2C(=O)C(C(C)CC)NC(=O)C(Cc2cn(OC)c3ccccc23)NC1=O)=NNC(N)=O (stereo not shown) [Example 1, Semicarbazone Derivative of Apicidin] | – | < 0.2 | < 0.2 | – | 0.2 to 2.07 (≈ 0.294 to 3.04 µM) | – | 0.2 to 2.07 (≈ 0.294 to 3.04 µM) | – | < 0.2 | – | 1 | – | – | – | – | 0.20 | – | – | about 5 times | 0.34
